In patent publication US9181193B2, “Indenoquinolone compound, preparation method and use thereof” (Second Military Medical University, PLA, priority 2010, dated 2015):
≈ marks a conversion by molar mass, not a printed value.

Columns and labels:
[1] = system: human lung cancer cell line A549; assay: Anti-tumor activity test in vivo, nude mouse model of A549; settings: nude mouse model of A549, dose of 1-200 mg/kg weight
Description: The activities of some compounds in vivo in the nude mouse model of human lung cancer cell line A549 were detected by using literature methods (WEI Hong. Medical Experiments Zoology. 2nd edition. Chengdu: Sichuan Science and Technology Press, 2001: 595-596).

[2] = system: A549 (human lung cancer cells); assay: MTT in vitro anti-tumor activity test, A549; format: cell-based; settings: for IC50: Homo sapiens, A549, 72 h, read-out: A549 IC50
[3] = system: MDA-MB-435 (human breast cancer cells); assay: MTT in vitro anti-tumor activity test, MDA-MB-435; format: cell-based; settings: for IC50: Homo sapiens, MDA-MB-435, 72 h, read-out: MDA-MB-435 IC50
[4] = system: Colo205 (human colon cancer cells); assay: MTT in vitro anti-tumor activity test, Colo205; format: cell-based; settings: for IC50: Homo sapiens, COLO 205, 72 h, read-out: Colo205 IC50
[5] = system: HepG2 (human hepatoma cells); assay: MTT in vitro anti-tumor activity test, HepG2; format: cell-based; settings: for IC50: Homo sapiens, HepG2, 72 h, read-out: HepG2 IC50
[6] = A549 human lung cancer cells, MTT, 72 h
[7] = MDA-MB-435, 100 μg/mL, MTT, 72 h
[8] = MDA-MB-435 human breast cancer cells, MTT, 72 h
[9] = Colo205 human colon cancer cells, MTT, 72 h
[10] = HepG2 human hepatoma cells, MTT, 72 h
[11] = MTT assay, 72 h incubation, A549 cells
[12] = inhibition at 100 μg/mL, MTT assay, 72 h, A549 cells
[13] = MTT assay, 72 h incubation, MDA-MB-435 cells
[14] = inhibition at 100 μg/mL, MTT assay, 72 h, MDA-MB-435 cells
[15] = MTT assay, 72 h incubation, Colo205 cells
[16] = inhibition at 100 μg/mL, MTT assay, 72 h, Colo205 cells
[17] = MTT assay, 72 h incubation, HepG2 cells
[18] = inhibition at 100 μg/mL, MTT assay, 72 h, HepG2 cells

| Compound | A549 IC50 [2, 6] [µg/mL] | MDA-MB-435 IC50 [3, 8] [µg/mL] | Colo205 IC50 [4, 9] [µg/mL] | HepG2 IC50 [5, 10] [µg/mL] | anti-tumor activity in vivo [1] | A549 100 μg/mL IC % ([2]; A549, 100 μg/mL, MTT, 72 h) [%] | MDA-MB-435 100 μg/mL IC % [3, 7] [%] | Colo205 100 μg/mL IC % ([4]; Colo205, 100 μg/mL, MTT, 72 h) [%] | HepG2 100 μg/mL IC % ([5]; HepG2, 100 μg/mL, MTT, 72 h) [%] | A549 100 μg/mL IC % [2, 12] [%] | MDA-MB-435 100 μg/mL IC % [3, 14] [%] | Colo205 100 μg/mL IC % [4, 16] [%] | HepG2 100 μg/mL IC % [5, 18] [%] | other results |
| --- | --- | --- | --- | --- | --- | --- | --- | --- | --- | --- | --- | --- | --- | --- |
| COc1ccc2c(c1)C(=O)c1c-2c(OCCCN(C)C)nc2ccccc12 [Compound 6] | 1.14 | 3.64 | 0.719 | 2.17 | good anti-tumor activity in vivo | 100 | 100 | 100 | 98.33 |  |  |  |  |  |
| COc1ccc2c(c1)C(=O)c1c-2c(=O)n(CCCN(C)C)c2cc(OC)c(OC)cc12 [Compound 46] |  |  |  |  | good anti-tumor activity in vivo |  |  |  |  | 68.78 | 85.86 | 87.44 | 90.77 | A549 IC50 [2, 11]: 12.52 µg/mL; MDA-MB-435 IC50 [3, 13]: 0.267 µg/mL; Colo205 IC50 [4, 15]: 22.18 µg/mL; HepG2 IC50 [5, 17]: 12.02 µg/mL |
| COc1ccc2c(c1)C(=O)c1c-2c(OCCN(C)C)nc2cc(OC)c(OC)cc12 [Compound 20] | 13.78 | 0.99 | 0.606 | 1.28 | good anti-tumor activity in vivo | 100 | 99.28 | 93.79 | 99.17 |  |  |  |  |  |
| COc1ccc2c(c1)C(=O)c1c-2c(OCCN(C)C)nc2ccccc12 [Compound 1] |  |  |  |  | good anti-tumor activity in vivo | 100 | 95.81 | 100 | 99.40 |  |  |  |  | IC50 [2]: 0.983 µg/mL (≈ 2.82 µM); melting point: 116 to 118 °C; IC50 [3]: 1 µg/mL (≈ 2.87 µM); IC50 [4]: 0.621 µg/mL (≈ 1.78 µM); IC50 [5]: 0.721 µg/mL (≈ 2.07 µM) |
| COc1ccc2c(c1)-c1c(c3cc(OC)ccc3n(CCN(C)C)c1=O)C2=O [Compound 42] |  |  |  |  |  |  |  |  |  | 87.75 | 100 | 100 | 100 | A549 IC50 [2, 11]: 8.03 µg/mL; MDA-MB-435 IC50 [3, 13]: 3.12 µg/mL; Colo205 IC50 [4, 15]: 1.27 µg/mL; HepG2 IC50 [5, 17]: 3.77 µg/mL |
| O=C1c2cc(Cl)ccc2-c2c1c1ccccc1n(CCN1CCCC1)c2=O [Compound 37] |  |  |  |  |  |  |  |  |  | 61.64 | 70.26 | 69.37 | 24.95 | A549 IC50 [2, 11]: 58.58 µg/mL; MDA-MB-435 IC50 [3, 13]: 41.01 µg/mL; Colo205 IC50 [4, 15]: 36.76 µg/mL; HepG2 IC50 [5, 17]: >100 µg/mL |
| CN(C)CCOc1nc2ccccc2c2c1-c1ccc(Cl)cc1C2=O [Compound 7] | 15.12 | 4.91 | 6.46 | 22.95 |  | 90.29 | 100 | 100 | 100 |  |  |  |  |  |
| COc1ccc2c(c1)C(=O)c1c-2c(=O)n(CCN2CCOCC2)c2cc(OC)c(OC)cc12 [Compound 45] |  |  |  |  |  |  |  |  |  | 62.84 | 72.95 | 66.89 | 84.31 | A549 IC50 [2, 11]: 37.85 µg/mL; MDA-MB-435 IC50 [3, 13]: 7.86 µg/mL; Colo205 IC50 [4, 15]: 16.76 µg/mL; HepG2 IC50 [5, 17]: 6.27 µg/mL |
| COc1ccc2c(c1)C(=O)c1c-2c(=O)n(CCN(C)C)c2ccccc12 [Compound 31, 5-(2-dimethylaminoethyl)-9-methoxy-5H-indeno[1,2-c]quinoline-6,11-dione] |  |  |  |  |  |  |  |  |  | 93.62 | 86.09 | 88.35 | 90.60 | IC50 [2]: 1.72 µg/mL (≈ 4.94 µM); melting point: 198 to 200 °C; IC50 [3]: 1.83 µg/mL (≈ 5.25 µM); IC50 [4]: 1.2 µg/mL (≈ 3.44 µM); IC50 [5]: 0.746 µg/mL (≈ 2.14 µM) |
| COc1ccc2c(c1)C(=O)c1c-2c(OCCn2ccnc2)nc2ccccc12 [Compound 4] | 16.61 | >100 | 13.51 | >100 |  | 78.34 | 48.21 | 60.32 | 34.87 |  |  |  |  |  |

Continued, in another order:

| A549 IC50 [2, 6] [µg/mL] | MDA-MB-435 IC50 [3, 8] [µg/mL] | Colo205 IC50 [4, 9] [µg/mL] | HepG2 IC50 [5, 10] [µg/mL] | Compound | anti-tumor activity in vivo [1] | A549 100 μg/mL IC % ([2]; A549, 100 μg/mL, MTT, 72 h) [%] | MDA-MB-435 100 μg/mL IC % [3, 7] [%] | Colo205 100 μg/mL IC % ([4]; Colo205, 100 μg/mL, MTT, 72 h) [%] | HepG2 100 μg/mL IC % ([5]; HepG2, 100 μg/mL, MTT, 72 h) [%] | A549 100 μg/mL IC % [2, 12] [%] | MDA-MB-435 100 μg/mL IC % [3, 14] [%] | Colo205 100 μg/mL IC % [4, 16] [%] | HepG2 100 μg/mL IC % [5, 18] [%] | other results |
| --- | --- | --- | --- | --- | --- | --- | --- | --- | --- | --- | --- | --- | --- | --- |
| 6.11 | 1.29 | 0.580 | 0.552 | CCN(CC)CCOc1nc2ccc(OC)cc2c2c1-c1ccc(OC)cc1C2=O [Compound 14] | good anti-tumor activity in vivo | 100 | 99.95 | 97.47 | 100 |  |  |  |  |  |
| 28.56 | 31.62 | 15.16 | 28.84 | CCN(CC)CCOc1nc2ccccc2c2c1-c1ccc(Cl)cc1C2=O [Compound 8] |  | 84.24 | 100 | 99.01 | 73.57 |  |  |  |  |  |
| >100 | 24.86 | >100 | >100 | COc1ccc2nc(OCCN3CCCC3)c3c(c2c1)C(=O)c1cc(Br)ccc1-3 [Compound 18] |  | 35.69 | 67.72 | 43.88 | 35.48 |  |  |  |  |  |
| 1.43 | 1.85 | 1.30 | 8.61 | COc1ccc2c(c1)C(=O)c1c-2c(OCCN2CCCC2)nc2cc(OC)c(OC)cc12 [Compound 22] |  | 97.05 | 100 | 93.84 | 81.69 |  |  |  |  |  |
| >100 | >100 | >100 | >100 | COc1ccc2c(c1)C(=O)c1c-2c(OCCBr)nc2ccccc12 [Compound 30] |  | 19.48 | 31.90 | 21.11 | 0 |  |  |  |  |  |
